Experimental data reported in ChEMBL document CHEMBL3112448, “Selective COX-1 inhibition as a target of theranostic novel diarylisoxazoles” (Eur J Med Chem, 2014).
One block for each compound: values may come before it. Activity calls are given as the source filed them. The calls are words filed in the database; no cut-off is given here.

How the values were obtained:
[1] = target: T1, Prostaglandin G/H synthase 1 (Ovis aries) (UniProt P05979); conditions: at 50 µM
T1 sequence (whole entry): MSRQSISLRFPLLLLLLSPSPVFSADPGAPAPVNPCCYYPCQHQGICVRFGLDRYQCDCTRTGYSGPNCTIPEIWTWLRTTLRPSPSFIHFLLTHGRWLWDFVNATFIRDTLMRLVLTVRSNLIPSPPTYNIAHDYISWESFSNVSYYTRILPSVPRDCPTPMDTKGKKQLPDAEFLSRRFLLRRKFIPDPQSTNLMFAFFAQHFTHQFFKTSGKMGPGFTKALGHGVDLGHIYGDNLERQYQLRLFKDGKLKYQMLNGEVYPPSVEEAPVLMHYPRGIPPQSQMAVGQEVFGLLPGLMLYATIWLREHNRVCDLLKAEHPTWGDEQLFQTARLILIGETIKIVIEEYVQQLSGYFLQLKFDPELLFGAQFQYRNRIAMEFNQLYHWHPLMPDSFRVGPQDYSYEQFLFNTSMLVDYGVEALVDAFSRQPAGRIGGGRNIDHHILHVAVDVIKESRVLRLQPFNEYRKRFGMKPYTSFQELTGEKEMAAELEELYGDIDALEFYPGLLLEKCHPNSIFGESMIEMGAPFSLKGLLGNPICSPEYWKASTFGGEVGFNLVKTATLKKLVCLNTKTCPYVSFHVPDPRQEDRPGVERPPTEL
Description: Inhibition of ovine COX1 at 50 uM by peroxidase activity-based colorimetric assay

[2] = target: Prostaglandin G/H synthase 1 (Homo sapiens, UniProt P23219); test: Inhibition of COX1 in human OVCAR3 cells using [14C]arachidonic acid as substrate preincubated for 30 mins before substrate addition by radioactivity scanning technique; type: cell-based, OVCAR-3
Chain of Prostaglandin G/H synthase 1 (P23219 whole entry): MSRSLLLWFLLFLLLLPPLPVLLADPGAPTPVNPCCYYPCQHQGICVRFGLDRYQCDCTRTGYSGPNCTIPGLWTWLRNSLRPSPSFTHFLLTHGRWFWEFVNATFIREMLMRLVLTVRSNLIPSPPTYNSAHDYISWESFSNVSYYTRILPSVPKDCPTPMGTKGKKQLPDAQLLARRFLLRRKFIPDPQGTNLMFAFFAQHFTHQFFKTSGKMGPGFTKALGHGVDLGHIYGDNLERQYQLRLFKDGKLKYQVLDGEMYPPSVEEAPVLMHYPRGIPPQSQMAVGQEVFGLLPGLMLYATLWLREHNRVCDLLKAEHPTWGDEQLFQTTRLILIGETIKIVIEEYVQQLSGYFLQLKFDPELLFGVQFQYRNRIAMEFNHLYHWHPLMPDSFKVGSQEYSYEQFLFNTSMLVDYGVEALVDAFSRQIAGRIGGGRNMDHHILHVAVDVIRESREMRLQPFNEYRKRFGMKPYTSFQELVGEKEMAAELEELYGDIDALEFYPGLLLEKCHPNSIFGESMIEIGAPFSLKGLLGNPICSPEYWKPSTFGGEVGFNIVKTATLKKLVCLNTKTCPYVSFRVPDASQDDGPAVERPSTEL

inhibition [1]: 39%
Compound: COc1ccccc1-c1noc(C(F)(F)F)c1-c1ccccc1

inhibition [1]: inactive
Compound: COC(=O)Cc1onc(-c2ccc(Cl)o2)c1-c1ccccc1

inhibition [1]: 55%
Compound: CCc1onc(-c2ccc(Cl)o2)c1-c1ccccc1

inhibition [1]: inactive
Compound: Cc1onc(-c2ccc(Cl)o2)c1-c1ccc([N+](=O)[O-])cc1

inhibition [1]: 17%
Compound: CCCc1onc(-c2ccc(Cl)o2)c1-c1ccccc1

inhibition [1]: 35%
Compound: Clc1ccc(-c2noc(CBr)c2-c2ccccc2)o1

inhibition [1]: 25%
Compound: CC(=O)N(C(C)=O)c1onc(-c2ccc(Cl)o2)c1-c1ccccc1

The next lines start with the compound.

Compound: COc1ccccc1-c1noc(C)c1-c1ccccc1
inhibition [1]: 61%

Compound: O=C(O)Cc1onc(-c2ccc(Cl)o2)c1-c1ccccc1
inhibition [1]: 32%

Compound: N#CCc1onc(-c2ccc(Cl)o2)c1-c1ccccc1
inhibition [1]: 12%

Compound: CN(C)c1onc(-c2ccc(Cl)o2)c1-c1ccccc1
inhibition [1]: inactive

Compound: Nc1onc(-c2ccc(Cl)o2)c1-c1ccccc1
IC50 [2]: 580 nM
inhibition [1]: 94%

Compound: Cc1onc(-c2ccc(Cl)o2)c1-c1ccc(N)cc1
inhibition [1]: 78%

Compound: Cc1onc(-c2ccc(Cl)o2)c1-c1ccccc1
inhibition [1]: 69%
